Measured values published in paper PMC11435205, “TnP and AHR-CYP1A1 Signaling Crosstalk in an Injury-Induced Zebrafish Inflammation Model” (Pharmaceuticals, 2024).

Columns and labels:
CYP1 = details: cited from earlier work
[1] = tested on: (DOX)-induced cardiotoxicity; details: zebrafish; cited from earlier work
Excerpt: In addition to its implication in the resolution of inflammation and tissue injury, Asnani et al. recently concluded that inhibition of CYP1 was protective of (DOX)-induced cardiotoxicity.

CYP1A1 = molecular target: T1, CYP1A1 (Homo sapiens, UniProt P04798); experiment: in vitro; details: pH 7.4, CYP1A1 enzyme activity (%), MNF 2.5 µM, positive control
T1 sequence (P04798 1-512): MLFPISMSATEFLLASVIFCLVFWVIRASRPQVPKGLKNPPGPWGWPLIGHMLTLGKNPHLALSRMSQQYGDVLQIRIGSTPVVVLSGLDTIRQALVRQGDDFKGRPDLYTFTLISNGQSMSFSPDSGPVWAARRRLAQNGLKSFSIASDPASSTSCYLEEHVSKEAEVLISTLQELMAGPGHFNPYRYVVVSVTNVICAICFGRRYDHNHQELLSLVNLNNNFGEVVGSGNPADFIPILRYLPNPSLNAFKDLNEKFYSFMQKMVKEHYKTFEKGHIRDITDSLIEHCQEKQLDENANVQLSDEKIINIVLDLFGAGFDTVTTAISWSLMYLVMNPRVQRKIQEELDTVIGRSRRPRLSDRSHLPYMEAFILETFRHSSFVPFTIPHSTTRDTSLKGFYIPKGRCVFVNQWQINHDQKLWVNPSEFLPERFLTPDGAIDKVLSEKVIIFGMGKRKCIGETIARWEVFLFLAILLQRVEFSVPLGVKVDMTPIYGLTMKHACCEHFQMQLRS
Procedure: The ethoxyresorufin deethylase (EROD) assay was performed using recombinant human CYP1A1 to determine TnP-mediated inhibition of CYP1A1 enzyme activity according to Wincent et al. [47], with minor changes. In brief, 2.5 nM CYP1A1 was pre-incubated with different concentrations of TnP in Tris-HCl buffer (0.1 M, pH 7.4) with EDTA (1 mM) at 37 °C for 3 min followed by the addition of ethoxyresorufin (0.1 μM) and NADPH (0.4 mM). Formation of resorufin was quantified in triplicates using a Tecan Infinite F200 multiwell plate reader (Tecan Group Ltd., Männedorf, Switzerland) with the excitation/emission wavelengths of 530/590 nm every 4 s for 2 min. The enzyme activity was determined by comparing the rate of resorufin formation compared to the vehicle control DMSO. The TnP concentration causing 50% inhibition of EROD activity (IC50) was estimated by nonlinear dose–response inhibition analysis using GraphPad Prism 9.1 (GraphPad Software, San Diego, CA, USA).
All the concentration were read at least in triplicate. Dimethyl sulfoxide – DMSO was tested
as negative control, and 3’-methoxy-4’-nitroflavone – MNF as positive control.

O=Cc1c2c(cc3c1=Nc1ccccc1-3)=Nc1ccccc1-2 [FICZ]
clearance dependence (CYP1): clearance is dependent on CYP1

COc1c2ccoc2cc2oc(C)cc(=O)c12 [visnagin]
effect on DOX-induced cardiotoxicity [1]: cardioprotection

COc1cc(-c2cc(=O)c3ccccc3o2)ccc1[N+](=O)[O-] [MNF]
activity (CYP1A1; replicate I): 1.54% | activity (CYP1A1; replicate II): 1.54% | activity (CYP1A1; replicate III): 1.71% | activity (CYP1A1; replicate IV): 1.67% | activity (CYP1A1; replicate IX): 0.51% | activity (CYP1A1; replicate V): 1.31% | activity (CYP1A1; replicate VI): 1.7% | activity (CYP1A1; replicate VII): 0.51% | activity (CYP1A1; replicate VIII): 0.51%
